# Data published in ChEMBL document CHEMBL2021812, “Aryltriflates as a Neglected Moiety in Medicinal Chemistry: A Case Study from a Lead Optimization of CXCL8 Inhibitors” (ACS Med Chem Lett, 2011).
# Assays:
# [1] = test system: Hepatocyte; assay: Drug metabolism in rat hepatocytes assessed as (S)-2-(4-(trifluoromethylsulfonyloxy)phenyl)propanoic acid level at 10 uM after 60 mins; assay type: ADME, cell-based; conditions: 1 h
# [2] = target: Interleukin-8 receptors, CXCR1/CXCR2 (Homo sapiens) (UniProt P25025+P25024); assay: Inhibition of CXCR1/2 in human polymorphonucleate cells assessed as inhibition of CXCL8-induced chemotaxis at 10^-8 M incubated for 15 mins prior to CXCL8-induction measured after 45 mins
# [3] = target: T1, CYP1A2 (Homo sapiens, UniProt P05177); assay: Inhibition of CYP1A2 using CEC as substrate at 10 uM; assay type: ADME; conditions: probe CEC
# T1 sequence (P05177 whole entry): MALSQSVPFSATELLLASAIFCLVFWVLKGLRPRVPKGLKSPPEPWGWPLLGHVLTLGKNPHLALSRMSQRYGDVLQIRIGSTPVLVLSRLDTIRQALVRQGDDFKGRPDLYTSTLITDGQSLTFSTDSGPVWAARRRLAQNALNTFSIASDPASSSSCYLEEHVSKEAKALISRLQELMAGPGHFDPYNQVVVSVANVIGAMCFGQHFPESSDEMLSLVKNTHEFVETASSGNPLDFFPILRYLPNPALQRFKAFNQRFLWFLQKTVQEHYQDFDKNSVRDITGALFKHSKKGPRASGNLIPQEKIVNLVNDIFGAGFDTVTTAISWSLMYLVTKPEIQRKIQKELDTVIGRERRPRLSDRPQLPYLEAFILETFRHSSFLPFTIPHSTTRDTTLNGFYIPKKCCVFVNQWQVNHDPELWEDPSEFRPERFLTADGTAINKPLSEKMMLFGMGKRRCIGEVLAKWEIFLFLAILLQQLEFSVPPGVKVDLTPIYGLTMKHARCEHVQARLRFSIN
# [4] = Chemical stability of the compound assessed as compound remaining at pH 7.4 after 2 hrs; assay type: physicochemical; conditions: buffer, read-out: Stability
# [5] = target: CYP2C19 (Homo sapiens, UniProt P33261); assay: Inhibition of CYP2C19 using DBF as substrate at 10 uM; assay type: ADME; conditions: probe DBF
# [6] = test system: Hepatocyte; assay: Drug metabolism in rat hepatocytes assessed as (S)-2-(4-(trifluoromethylsulfonyloxy)phenyl)propanoic acid level at 10 uM after 30 mins; assay type: ADME, cell-based; conditions: 0.5 h
# [7] = test system: Hepatocyte; assay: Metabolic stability in rat hepatocytes assessed as compound remaining at 10 uM after 15 mins; assay type: ADME, cell-based; conditions: 0.25 h
# [8] = Chemical stability of the compound assessed as compound remaining at pH 9 after 2 hrs; assay type: physicochemical; conditions: buffer, read-out: Stability
# [9] = test system: Hepatocyte; assay: Metabolic stability in rat hepatocytes assessed as compound remaining at 10 uM after 120 mins; assay type: ADME, cell-based; conditions: 2 h
# [10] = test system: Hepatocyte; assay: Drug metabolism in rat hepatocytes assessed as (S)-2-(4-(trifluoromethylsulfonyloxy)phenyl)propanoic acid level at 10 uM after 120 mins; assay type: ADME, cell-based; conditions: 2 h
# [11] = test system: Hepatocyte; assay: Drug metabolism in human hepatocytes assessed as (S)-2-(4-(trifluoromethylsulfonyloxy)phenyl)propanoic acid level at 10 uM after 90 mins; assay type: ADME, cell-based; conditions: 1.5 h
# [12] = target: CYP3A4 (Homo sapiens, UniProt P08684); assay: Inhibition of CYP3A4 using BFC as substrate at 10 uM; assay type: ADME; conditions: probe BFC
# [13] = test system: Hepatocyte; assay: Metabolic stability in rat hepatocytes assessed as compound remaining at 10 uM after 60 mins; assay type: ADME, cell-based; conditions: 1 h
# [14] = test system: Hepatocyte; assay: Drug metabolism in human hepatocytes assessed as (S)-2-(4-(trifluoromethylsulfonyloxy)phenyl)propanoic acid level at 10 uM after 15 mins; assay type: ADME, cell-based; conditions: 0.25 h
# [15] = test system: Hepatocyte; assay: Metabolic stability in human hepatocytes assessed as compound remaining at 10 uM after 90 mins; assay type: ADME, cell-based; conditions: 1.5 h
# [16] = test system: Hepatocyte; assay: Metabolic stability in rat hepatocytes assessed as compound remaining at 10 uM after 90 mins; assay type: ADME, cell-based; conditions: 1.5 h
# [17] = target: CYP2D6 (Homo sapiens, UniProt P10635); assay: Inhibition of CYP2D6 using AMMC as substrate at 10 uM; assay type: ADME; conditions: probe AMMC
# [18] = test system: Hepatocyte; assay: Drug metabolism in human hepatocytes assessed as (S)-2-(4-(trifluoromethylsulfonyloxy)phenyl)propanoic acid level at 10 uM after 120 mins; assay type: ADME, cell-based; conditions: 2 h
# [19] = test system: Hepatocyte; assay: Drug metabolism in human hepatocytes assessed as (S)-2-(4-(trifluoromethylsulfonyloxy)phenyl)propanoic acid level at 10 uM after 60 mins; assay type: ADME, cell-based; conditions: 1 h
# [20] = test system: Hepatocyte; assay: Metabolic stability in rat hepatocytes assessed as compound remaining at 10 uM after 30 mins; assay type: ADME, cell-based; conditions: 0.5 h
# [21] = Chemical stability of the compound assessed as compound remaining at pH 3.5 after 2 hrs; assay type: physicochemical; conditions: buffer, read-out: Stability
# [22] = test system: Hepatocyte; assay: Metabolic stability in human hepatocytes assessed as compound remaining at 10 uM after 30 mins; assay type: ADME, cell-based; conditions: 0.5 h
# [23] = test system: Hepatocyte; assay: Drug metabolism in rat hepatocytes assessed as (S)-2-(4-(trifluoromethylsulfonyloxy)phenyl)propanoic acid level at 10 uM after 15 mins; assay type: ADME, cell-based; conditions: 0.25 h
# [24] = test system: Hepatocyte; assay: Metabolic stability in human hepatocytes assessed as compound remaining at 10 uM after 60 mins; assay type: ADME, cell-based; conditions: 1 h
# [25] = test system: Hepatocyte; assay: Metabolic stability in human hepatocytes assessed as compound remaining at 10 uM after 15 mins; assay type: ADME, cell-based; conditions: 0.25 h
# [26] = test system: Hepatocyte; assay: Drug metabolism in rat hepatocytes assessed as (S)-2-(4-(trifluoromethylsulfonyloxy)phenyl)propanoic acid level at 10 uM after 90 mins; assay type: ADME, cell-based; conditions: 1.5 h
# [27] = target: T2, C-X-C chemokine receptor type 2 (Homo sapiens) (UniProt P25025); assay: Inhibition of CXCR2 in human polymorphonucleate cells assessed as inhibition of CXCL1-induced chemotaxis at 10^-8 M incubated for 15 mins prior to CXCL1-induction measured after 45 mins
# T2 sequence (whole entry): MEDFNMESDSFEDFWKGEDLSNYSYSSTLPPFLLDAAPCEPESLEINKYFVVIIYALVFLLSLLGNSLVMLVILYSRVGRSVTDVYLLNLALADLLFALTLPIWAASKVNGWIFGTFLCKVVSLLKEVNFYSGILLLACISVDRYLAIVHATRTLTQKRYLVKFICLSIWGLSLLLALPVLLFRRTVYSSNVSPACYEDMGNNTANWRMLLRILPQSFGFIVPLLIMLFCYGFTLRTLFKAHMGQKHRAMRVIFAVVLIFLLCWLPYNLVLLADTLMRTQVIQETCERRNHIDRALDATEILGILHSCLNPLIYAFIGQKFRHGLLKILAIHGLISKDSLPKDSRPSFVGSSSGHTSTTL
# [28] = test system: Hepatocyte; assay: Drug metabolism in human hepatocytes assessed as (S)-2-(4-(trifluoromethylsulfonyloxy)phenyl)propanoic acid level at 10 uM after 30 mins; assay type: ADME, cell-based; conditions: 0.5 h
# [29] = target: CYP2C9 (Homo sapiens, UniProt P11712); assay: Inhibition of CYP2C9 using 7MFC as substrate at 10 uM; assay type: ADME; conditions: probe 7MFC
# [30] = Dissociation constant, pKa of the compound; assay type: physicochemical
# [31] = test system: Hepatocyte; assay: Metabolic stability in human hepatocytes assessed as compound remaining at 10 uM after 120 mins; assay type: ADME, cell-based; conditions: 2 h
# [32] = Metabolic stability in rat plasma assessed as compound remaining at 1 uM after 1 hr; assay type: ADME, cell-free; conditions: read-out: Stability
# Chain of CYP2D6 (P10635 whole entry): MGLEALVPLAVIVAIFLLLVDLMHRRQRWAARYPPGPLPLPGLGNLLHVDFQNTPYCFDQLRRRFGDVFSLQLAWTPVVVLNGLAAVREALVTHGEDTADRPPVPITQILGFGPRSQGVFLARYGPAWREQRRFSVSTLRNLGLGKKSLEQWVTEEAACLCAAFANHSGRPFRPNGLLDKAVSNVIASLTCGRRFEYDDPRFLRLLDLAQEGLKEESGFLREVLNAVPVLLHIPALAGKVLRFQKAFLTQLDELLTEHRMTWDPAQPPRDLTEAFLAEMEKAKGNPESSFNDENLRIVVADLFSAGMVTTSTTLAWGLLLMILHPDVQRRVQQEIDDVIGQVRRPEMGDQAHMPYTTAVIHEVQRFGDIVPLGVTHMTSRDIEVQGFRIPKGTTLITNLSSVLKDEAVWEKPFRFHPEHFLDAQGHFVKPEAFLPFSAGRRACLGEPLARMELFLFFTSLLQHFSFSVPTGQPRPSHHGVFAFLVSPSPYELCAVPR
# Chain of CYP3A4 (P08684 whole entry): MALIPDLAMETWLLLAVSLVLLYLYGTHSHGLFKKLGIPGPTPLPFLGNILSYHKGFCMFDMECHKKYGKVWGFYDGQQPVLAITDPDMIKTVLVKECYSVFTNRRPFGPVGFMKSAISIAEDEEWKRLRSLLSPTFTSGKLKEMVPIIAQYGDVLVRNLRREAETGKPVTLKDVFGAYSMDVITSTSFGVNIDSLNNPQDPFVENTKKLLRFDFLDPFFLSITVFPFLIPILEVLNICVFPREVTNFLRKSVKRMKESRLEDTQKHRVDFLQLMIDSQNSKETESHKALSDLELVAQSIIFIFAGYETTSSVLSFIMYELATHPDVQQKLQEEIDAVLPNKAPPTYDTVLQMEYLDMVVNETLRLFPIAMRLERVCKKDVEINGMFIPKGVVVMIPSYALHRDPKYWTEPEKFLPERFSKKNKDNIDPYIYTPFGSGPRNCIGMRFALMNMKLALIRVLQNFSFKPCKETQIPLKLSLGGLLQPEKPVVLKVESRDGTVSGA
# Chain of CYP2C9 (P11712 whole entry): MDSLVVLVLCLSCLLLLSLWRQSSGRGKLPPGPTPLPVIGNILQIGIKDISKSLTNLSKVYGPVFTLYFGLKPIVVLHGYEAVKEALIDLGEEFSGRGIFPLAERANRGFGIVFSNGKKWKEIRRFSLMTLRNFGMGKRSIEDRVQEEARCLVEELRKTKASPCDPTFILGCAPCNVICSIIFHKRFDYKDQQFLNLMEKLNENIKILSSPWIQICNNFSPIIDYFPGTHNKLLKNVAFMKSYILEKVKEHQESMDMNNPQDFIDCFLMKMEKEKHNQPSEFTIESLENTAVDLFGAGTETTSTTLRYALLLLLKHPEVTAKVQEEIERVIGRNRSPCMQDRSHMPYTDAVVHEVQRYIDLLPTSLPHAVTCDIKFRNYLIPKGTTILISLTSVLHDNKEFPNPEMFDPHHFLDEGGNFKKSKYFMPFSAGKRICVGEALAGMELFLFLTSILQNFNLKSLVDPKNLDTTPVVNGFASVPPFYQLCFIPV
# Chain of CYP2C19 (P33261 whole entry): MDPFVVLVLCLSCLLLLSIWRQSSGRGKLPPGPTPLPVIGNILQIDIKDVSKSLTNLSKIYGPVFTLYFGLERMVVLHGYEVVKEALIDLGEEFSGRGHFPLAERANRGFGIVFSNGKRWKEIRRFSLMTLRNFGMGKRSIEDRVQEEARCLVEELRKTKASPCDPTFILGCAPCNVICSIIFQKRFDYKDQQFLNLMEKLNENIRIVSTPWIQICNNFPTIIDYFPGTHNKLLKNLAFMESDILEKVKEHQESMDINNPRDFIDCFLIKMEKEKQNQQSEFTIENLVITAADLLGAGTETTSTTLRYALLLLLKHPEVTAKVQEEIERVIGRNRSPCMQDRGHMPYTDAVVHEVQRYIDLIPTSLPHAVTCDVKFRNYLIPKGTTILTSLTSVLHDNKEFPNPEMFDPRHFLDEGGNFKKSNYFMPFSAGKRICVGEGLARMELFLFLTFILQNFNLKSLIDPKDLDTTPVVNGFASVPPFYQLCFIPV
smiles,measurement,setting,value
C[C@@H](C(=O)O)c1ccc(OS(=O)(=O)C(F)(F)F)cc1,Drug metabolism,[1],449 ng/mL
same,inhibition,[2],62%
same,inhibition at 10 µM,[3],< 5%
same,remaining at 2 h,[4],> 99%
same,inhibition at 10 µM,[5],< 5%
same,Drug metabolism,[6],210 ng/mL
same,Stability,[7],2839 ng/mL
same,remaining at 2 h,[8],30%
same,Stability,[9],1946 ng/mL
same,Drug metabolism,[10],870 ng/mL
same,Drug metabolism,[11],260 ng/mL
same,inhibition at 10 µM,[12],< 5%
same,Stability,[13],2287 ng/mL
same,Drug metabolism,[14],21 ng/mL
same,Stability,[15],2620 ng/mL
same,Stability,[16],2167 ng/mL
same,inhibition at 10 µM,[17],< 5%
same,Drug metabolism,[18],330 ng/mL
same,Drug metabolism,[19],240 ng/mL
same,Stability,[20],2541 ng/mL
same,remaining at 2 h,[21],> 99%
same,Stability,[22],2844 ng/mL
same,Drug metabolism,[23],117 ng/mL
same,Stability,[24],2696 ng/mL
same,Stability,[25],2932 ng/mL
same,Drug metabolism,[26],664 ng/mL
same,inhibition,[27],63%
same,Drug metabolism,[28],84 ng/mL
same,inhibition at 10 µM,[29],< 5%
same,pKa,[30],4
same,Stability,[31],2541 ng/mL
same,"remaining at 1 h, 1 µM",[32],100%
